Assays:
[1] = target: T1, HSD17B13 enzyme (Homo sapiens (Human), UniProt Q7Z5P4); assay: NADH detection assay (fluorescence based LTB3 assay) for HSD17B13 activity; assay type: biochemical; details: substrate 25 µM LTB3, 3 mM NAD+, 125 nM enzyme
Description: The fluorescence based Leukotriene B3 (LTB3) assay monitors the fluorescence of NADH, which is generated from NAD+ during the dehydrogenation of the substrate LTB3. The reactions were performed in a 384-well plates (Greiner; #655076) in a 20 µl reaction volume containing the following reagents (final concentrations): 25 µM LTB3 (Cayman; #20109); 3 mM NAD^+ (Sigma; #N0623); 125 nM HSD17B13 enzyme (in-house; E. coli expressed His-tagged, purified, soluble protein); 1 M potassium phosphate buffer, pH 7.4; and 1% DMSO. Reactions were initiated by co-addition of NAD+ and enzyme, and monitored for 1 hour at 26.5° C. Generation of NADH was measured as the fluorescence signal (Excitation at 340 nm and Emission at 445 nm) at 1 hour minus the baseline fluorescence at t=0. Fluorescence signals in the absence of LTB3 (negative control values), were subtracted from all values so that the results reflected substrate-dependent production of NADH. NADH standards were included to allow the conversion of relative fluorescence units into rates of enzyme activity. Enzyme activity in the presence of test compounds was expressed as a percentage of the uninhibited enzyme activity, and plotted versus inhibitor concentration. Non-linear regression was performed using a four-parameter logistic model and Microsoft Excel Solver software Ten concentrations of inhibitor were tested in duplicate (in the range of 30 µM - 2.5 nM), and two independent concentration response assays were performed.

[2] = target: T1, HSD17B13 enzyme; assay: Estrone detection assay (LC/MS, conversion of estradiol to estrone) for HSD17B13 activity; assay type: biochemical; details: substrate 4 µM estradiol, 6 mM NAD+, 30 nM enzyme
Description: The liquid chromatography/mass spectrometry (LC/MS) estrone detection assay monitors the conversion of estradiol to estrone by HSD17B13. This assay was undertaken in a 96wp format (Eppendorf deep well Plate 96/500) in an 80 µl reaction volume containing: 4 µM of Estradiol (E2; Cayman; #10006315), 6 mM NAD^+ (Sigma; #N0623) and 30 nM HSD17B13 enzyme (in-house; E. coli expressed His-tagged, purified, soluble protein) in a reaction containing 1 M potassium phosphate buffer pH 7.4, with 0.5% vehicle (DMSO). Reactions were incubated for 2 hours at 26.5° C., and estradiol (E2) conversion to estrone (E1) was quantitated by LC-MS/MS based analyte detection for both E2 and E1 using LCMS grade reagents.
Reactions were terminated by the addition of two volumes of acetonitrile (MeCN; LCMS grade; CAS# 75/05/8) containing deuterated (D4)-E1 used as internal standard (Clear Synth; #CS-T-54273; 500 ng/mL final concentration). Samples were applied to pre-prepared Bond Elut-C18 extraction cartridges (3 mL; Agilent; #12102028), washed and eluted in MeCN. Eluates were dried under nitrogen and re-suspended in 60% methanol (LCMS grade methanol; CAS# 67/56/1) before submission for analysis. Aqueous linearity for E2 and E1 were included for quantification.
Analysis of samples was undertaken on a XBridge BEH C18 column (Waters; #186003033) using 0.1% Diethyl Amine in MeCN (mobile phase A; DEA CAS# 109-89-7) and 0.1% Diethyl Amine in milli-Q water (mobile phase B) in a 3 min gradient allowing 25%B. Analytes were detected in negative mode using MRM analysis, with E2 having a RT of 1.85 min and E1 having a RT of 2 min. Activity of the enzyme, in the absence of NAD^+, was used to evaluate specificity of conversion. Enzyme activity in the presence of test samples was expressed as a percentage of the uninhibited enzyme activity, and plotted versus inhibitor concentration. Non-linear regression was performed using a four-parameter logistic model and GraphPad Prism software (GraphPad Software, La Jolla, CA). All assessments were undertaken in duplicate evaluations and pooled during extraction process and subsequently injected as duplicates for LC-MS/MS analysis.

T1 sequence (Q7Z5P4 20-300): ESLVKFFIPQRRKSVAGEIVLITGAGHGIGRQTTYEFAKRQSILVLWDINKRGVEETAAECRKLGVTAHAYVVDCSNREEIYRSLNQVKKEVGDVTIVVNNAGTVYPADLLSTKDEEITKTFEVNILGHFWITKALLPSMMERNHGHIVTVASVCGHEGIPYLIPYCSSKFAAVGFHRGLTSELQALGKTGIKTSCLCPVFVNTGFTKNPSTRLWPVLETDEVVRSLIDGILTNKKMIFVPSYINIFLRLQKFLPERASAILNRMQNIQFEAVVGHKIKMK

Row | IC50 [1] [µM] | IC50 [2] [µM] | SMILES
1 | ≤ 1 | ≤ 0.1 | COc1ccccc1CCn1cnc2cccc(NC(=O)c3ccc(O)c(Cl)c3)c2c1=O [Example 1, 3-chloro-4-hydroxy-N-(3-(2-methoxyphenethyl)-4-oxo-3,4-dihydroquinazolin-5-yl)benzamide]
2 | ≤ 1 | ≤ 0.1 | COc1ccccc1CCn1cnc2cccc(NC(=O)c3ccc(O)c(F)c3)c2c1=O [Example 2, 3-fluoro-4-hydroxy-N-(3-(2-methoxyphenethyl)-4-oxo-3,4-dihydroquinazolin-5-yl)benzamide]
3 | ≤ 1 | ≤ 0.1 | O=C(Nc1cccc2ncn(Cc3ccccc3)c(=O)c12)c1ccc(O)c(Cl)c1 [Example 3, N-(3-benzyl-4-oxo-3,4-dihydroquinazolin-5-yl)-3-chloro-4-hydroxybenzamide]
4 | > 10 | 1 to 10 | COc1ccccc1CCn1cnc2cccc(NC(=O)c3ccc(OCC(=O)O)c(F)c3)c2c1=O [Example 4, 2-(2-fluoro-4-((3-(2-methoxyphenethyl)-4-oxo-3,4-dihydroquinazolin-5-yl)carbamoyl)phenoxy)acetic acid]
5 | > 10 | 1 to 10 | COc1ccccc1CCn1cnc2cccc(NC(=O)c3ccc(C(=O)O)c(Cl)c3)c2c1=O [Example 5, 2-chloro-4-((3-(2-methoxyphenethyl)-4-oxo-3,4-dihydroquinazolin-5-yl)carbamoyl)benzoic acid]
6 | ≤ 1 | ≤ 0.1 | COc1ccccc1Cn1cnc2cccc(NC(=O)c3ccc(O)c(Cl)c3)c2c1=O [Example 6, 3-chloro-4-hydroxy-N-(3-(2-methoxybenzyl)-4-oxo-3,4-dihydroquinazolin-5-yl)benzamide]
7 | > 10 | > 10 | COc1ccccc1CCn1cnc2cccc(NC(=O)c3ccnc(C(F)(F)F)c3)c2c1=O [Example 7, N-(3-(2-methoxyphenethyl)-4-oxo-3,4-dihydroquinazolin-5-yl)-2-(trifluoromethyl)isonicotinamide]
8 | > 10 | 0.1 to 1 | O=C(Nc1cccc2ncn(-c3ccccc3)c(=O)c12)c1ccc(O)c(Cl)c1 [Example 8, 3-chloro-4-hydroxy-N-(4-oxo-3-phenyl-3,4-dihydroquinazolin-5-yl)benzamide]
9 | > 10 | 0.1 to 1 | O=C(Nc1cccc2ncn(-c3cccnc3)c(=O)c12)c1ccc(O)c(Cl)c1 [Example 9, 3-chloro-4-hydroxy-N-(4-oxo-3-(pyridin-3-yl)-3,4-dihydroquinazolin-5-yl)benzamide]
10 | ≤ 1 | ≤ 0.1 | CC(C)(C)CCn1cnc2cccc(NC(=O)c3ccc(O)c(Cl)c3)c2c1=O [Example 10, 3-chloro-N-(3-(3,3-dimethylbutyl)-4-oxo-3,4-dihydroquinazolin-5-yl)-4-hydroxybenzamide]
11 | 1 to 5 | 0.1 to 1 | Cn1c(-c2cccnc2)nc2cccc(NC(=O)c3ccc(O)c(Cl)c3)c2c1=O [Example 11, 3-chloro-4-hydroxy-N-(3-methyl-4-oxo-2-(pyridin-3-yl)-3,4-dihydroquinazolin-5-yl)benzamide]
12 | 1 to 5 | 1 to 10 | O=C(Nc1cccc2ncn(CC3CC3)c(=O)c12)c1ccc(S(=O)(=O)NC(=O)c2ccccc2)c(Cl)c1 [Example 14, 4-(N-benzoylsulfamoyl)-3-chloro-N-(3-(cyclopropylmethyl)-4-oxo-3,4-dihydroquinazolin-5-yl)benzamide]
13 | > 10 | 1 to 10 | CC(C)(C)CCn1cnc2cccc(NC(=O)c3cc(Cl)c(O)nn3)c2c1=O [Example 15, 5-chloro-N-(3-(3,3-dimethylbutyl)-4-oxo-3,4-dihydroquinazolin-5-yl)-6-hydroxypyridazine-3-carboxamide]
14 | 5 to 10 | 1 to 10 | CC(C)(C)CCn1cnc2cccc(NC(=O)c3ccc(S(=O)(=O)NC(=O)c4cccnc4)c(Cl)c3)c2c1=O [Example 16, N-((2-chloro-4-((3-(3,3-dimethylbutyl)-4-oxo-3,4-dihydroquinazolin-5-yl)carbamoyl)phenyl)sulfonyl)nicotinamide]
15 | > 10 | > 10 | Cn1c(-c2cccnc2)nc2cccc(NC(=O)c3ccc(-c4nnn[nH]4)c(F)c3)c2c1=O [Example 17, 3-fluoro-N-(3-methyl-4-oxo-2-(pyridin-3-yl)-3,4-dihydroquinazolin-5-yl)-4-(1H-tetrazol-5-yl)benzamide]
16 | > 10 | 1 to 10 | CC(C)(C)CCn1cnc2cccc(NC(=O)c3ccc(S(=O)(=O)NC(=O)c4ccccc4)c(Cl)c3)c2c1=O [Example 18, 4-(N-benzoylsulfamoyl)-3-chloro-N-(3-(3,3-dimethylbutyl)-4-oxo-3,4-dihydroquinazolin-5-yl)benzamide]
17 | 1 to 5 | > 10 | COc1ccccc1CCn1cnc2cccc(NC(=O)c3cc(Cl)c4[nH]c(=O)[nH]c4c3)c2c1=O [Example 19, 7-chloro-N-(3-(2-methoxyphenethyl)-4-oxo-3,4-dihydroquinazolin-5-yl)-2-oxo-2,3-dihydro-1H-benzo[d]imidazole-5-carboxamide]
18 | > 10 | 0.1 to 1 | O=C(Nc1cccc2ncn(Cc3ccncc3)c(=O)c12)c1ccc(O)c(F)c1 [Example 20, 3-fluoro-4-hydroxy-N-(4-oxo-3-(pyridin-4-ylmethyl)-3,4-dihydroquinazolin-5-yl)benzamide]
19 | > 10 | > 10 | COc1ccccc1CCn1cnc2cccc(NC(=O)c3ccc(-c4cn[nH]c4)c(F)c3)c2c1=O [Example 21, 3-fluoro-N-(3-(2-methoxyphenethyl)-4-oxo-3,4-dihydroquinazolin-5-yl)-4-(1H-pyrazol-4-yl)benzamide]
20 | 1 to 5 | > 10 | COc1ccccc1CCn1cnc2cccc(NC(=O)c3ccc(-c4cc[nH]n4)c(F)c3)c2c1=O [Example 22, 3-fluoro-N-(3-(2-methoxyphenethyl)-4-oxo-3,4-dihydroquinazolin-5-yl)-4-(1H-pyrazol-3-yl)benzamide]
21 | > 10 | > 10 | COc1ccccc1CCn1cnc2cccc(NC(=O)c3ccc(P(=O)(O)O)c(F)c3)c2c1=O [Example 23, (2-fluoro-4-((3-(2-methoxyphenethyl)-4-oxo-3,4-dihydroquinazolin-5-yl)carbamoyl)phenyl)phosphonic acid]
22 | > 10 | > 10 | COc1ccccc1CCn1cnc2cccc(NC(=O)c3cc(Cl)c(O)c(C(C)C)c3)c2c1=O [Example 24, 3-chloro-4-hydroxy-5-isopropyl-N-(3-(2-methoxyphenethyl)-4-oxo-3,4-dihydroquinazolin-5-yl)benzamide]
23 |  | 0.1 to 1 | CC(C)(C)n1ccc(Cn2cnc3cccc(NC(=O)c4cc(F)c(O)c(C#N)c4)c3c2=O)n1 [Example 63, N-(3-((1-(tert-butyl)-1H-pyrazol-3-yl)methyl)-4-oxo-3,4-dihydroquinazolin-5-yl)-3-cyano-5-fluoro-4-hydroxybenzamide]
24 |  | ≤ 0.1 | O=C(Nc1cccc2ncn(Cc3ccccc3OC(F)(F)F)c(=O)c12)c1cc(F)c(O)c(C(F)(F)F)c1 [Example 64, 3-fluoro-4-hydroxy-N-(4-oxo-3-(2-(trifluoromethoxy)benzyl)-3,4-dihydroquinazolin-5-yl)-5-(trifluoromethyl)benzamide]
25 |  | > 10 | O=C(Nc1cccc2ncn(Cc3cccc(F)c3)c(=O)c12)c1cc(Cl)c(O)c(=O)[nH]1 [Example 65, 4-chloro-N-(3-(3-fluorobenzyl)-4-oxo-3,4-dihydroquinazolin-5-yl)-5-hydroxy-6-oxo-1,6-dihydropyridine-2-carboxamide]
